Where “and” joins values, the source holds several entries; their conditions need not be identical. Equal values may be shown once.

In one assay the test system is CLL cells. In words: Annexin V / 7-AAD apoptosis assay on CLL cells. The class given is cell-based, human. The note with it: for median percent drug-specific apoptosis: 72-hour; for median drug-specific apoptosis: n=43. As for the experimental part:
Cells were cultured in either of two different media: Hybridoma SFM with 10% FBS or RPMI 1640 medium (Sigma) supplemented with 5% heat-inactivated human AB serum (Sigma), 50 units/ml penicillin, 50 μg/ml streptomycin, 2 mM L-glutamine, 25 mM HEPES (N2-hydroxyethylpiperazine-N′-2-ethanesulfonic acid), 100 μM MEM non-essential amino acids, and 1 mM sodium pyruvate (GIBCO). CLL cell sensitivity to LMP-420 was not affected by culture media, as determined by direct comparison of the apoptotic effects observed in both media for seven samples. After drug activity in the presence of human AB serum was confirmed, further studies were performed in Hybridoma SFM with 10% FBS.
CLL cells were cultured at 2×10^6 cells/ml in a volume of 100 μl/well in a U-bottom 96-well tissue culture plate (BD Biosciences, San Jose, Calif.) with either vehicle control or with drug. After 24, 48, or 72 hours of incubation, cells were analyzed for apoptosis by three different methods. For the annexin-based assay, 100 μl of Guava Nexin Reagent (Millipore, Billerica, Mass.) was added for 20 min. Cells were analyzed for annexin V-PE and 7-AAD staining with flow cytometric analysis by the Guava EasyCyte™ Plus system (Millipore). To facilitate comparison of samples with different levels of spontaneous apoptosis, drug-specific apoptosis is reported. Drug-specific apoptosis excludes background spontaneous apoptosis and was calculated as follows: 100%×(drug-induced apoptosis−spontaneous apoptosis)/(100−spontaneous apoptosis) (Reference 13).

The target of another assay is T1, human hERG (Homo sapiens, UniProt Q12809).
T1 construct: host or cells: HEK-293
Kind of assay: hERG [3H] Astemizole radioligand binding. The note with it: 1.5 nM [3H] Astemizole, HEK-293 cells, 60 min, 25° C.; read-out: IC50 for inhibition of radioligand binding to the cardiac potassium channel. As for the experimental part:
This assay was performed by MDS Pharma Services. Human recombinant HEK-293 cells over-expressing the human hERG receptor were incubated for 60 min at 25° C. with 1.5 nM [^3H] Astemizole in the presence or absence of the indicated concentrations of LMP-420. Nonspecific binding (<10%) was determined by binding of radioligand in 10 μM Astemizole. All samples were determined in duplicate.
(The hERG channel carries a current that helps repolarise heart muscle cells.)

T1 sequence (Q12809 whole entry): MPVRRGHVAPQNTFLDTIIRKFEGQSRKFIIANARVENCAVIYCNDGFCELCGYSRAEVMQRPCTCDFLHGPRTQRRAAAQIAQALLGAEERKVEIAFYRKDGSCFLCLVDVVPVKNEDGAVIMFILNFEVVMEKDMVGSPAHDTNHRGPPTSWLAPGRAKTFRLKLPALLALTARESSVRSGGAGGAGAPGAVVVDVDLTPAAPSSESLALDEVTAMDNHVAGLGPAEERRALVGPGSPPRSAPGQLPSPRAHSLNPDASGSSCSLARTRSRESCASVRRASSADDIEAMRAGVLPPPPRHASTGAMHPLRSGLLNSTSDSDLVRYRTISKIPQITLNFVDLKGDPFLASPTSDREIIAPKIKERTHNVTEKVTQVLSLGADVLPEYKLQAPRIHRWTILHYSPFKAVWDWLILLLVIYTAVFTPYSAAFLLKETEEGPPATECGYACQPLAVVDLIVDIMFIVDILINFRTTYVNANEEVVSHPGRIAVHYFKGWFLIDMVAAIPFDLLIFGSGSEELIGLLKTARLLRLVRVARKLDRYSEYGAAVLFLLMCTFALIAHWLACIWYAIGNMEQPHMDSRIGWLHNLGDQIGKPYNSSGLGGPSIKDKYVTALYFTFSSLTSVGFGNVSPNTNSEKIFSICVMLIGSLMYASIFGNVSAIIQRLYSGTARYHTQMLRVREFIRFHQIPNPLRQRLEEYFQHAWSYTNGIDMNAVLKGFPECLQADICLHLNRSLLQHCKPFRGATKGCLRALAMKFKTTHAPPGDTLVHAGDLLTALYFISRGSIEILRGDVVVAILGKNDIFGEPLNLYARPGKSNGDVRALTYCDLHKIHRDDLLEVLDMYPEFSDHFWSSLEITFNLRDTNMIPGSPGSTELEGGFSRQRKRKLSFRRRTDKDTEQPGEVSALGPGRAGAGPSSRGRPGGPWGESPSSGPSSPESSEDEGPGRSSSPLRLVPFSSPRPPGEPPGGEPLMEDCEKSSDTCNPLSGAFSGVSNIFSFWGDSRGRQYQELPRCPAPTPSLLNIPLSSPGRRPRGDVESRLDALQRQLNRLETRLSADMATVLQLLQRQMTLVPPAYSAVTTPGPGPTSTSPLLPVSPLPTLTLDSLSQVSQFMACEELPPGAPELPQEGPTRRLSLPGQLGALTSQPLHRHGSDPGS

In the case of `Nc1nc(Cl)c2ncn(CCCCCB(O)O)c2n1` [LMP-420, 2-amino-6-chloro-9-[5(dihydroxyboryl)-pentyl] purine], the “median percent drug-specific apoptosis” value with CLL cells (5,000 nM, mutated IgVH subgroup (n=30)) came out at 34%; with CLL cells (5,000 nM, unmutated IgVH subgroup (n=10)) it was 59%. The median drug-specific apoptosis in the assay with CLL cells (5,000 nM, 24 hours) was 15%; with CLL cells (5,000 nM, 48 hours), 28%; in the assay with CLL cells (5,000 nM, 72 hours) it was 32%. For the same compound, the “apoptosis, range” value with CLL cells (5,000 nM, patients with 11q22 deletion or complex cytogenetics (n=3)) was 13 to 58% and 13-58%. The EC50 in the assay with CLL cells (Homo sapiens, CLL cell, 72 hours, five-patient sample set, read-out: mean dose required for 50% drug-specific apoptosis by annexin V staining) worked out at 5 µM. For the same compound, in the assay on CLL cells (all samples, 72 hours), the “staining indicative of primary necrosis (7-AAD-positive, annexin-V-negative)” value is given as less than 2%. Moreover, in the assay with CLL cells (highest dose (5,000 nM), 72 hours), the “samples in which apoptosis was induced (49 of 50)” value was 98%. Besides, the IC50 on human hERG is greater than 100 µM.

One may read the IC50 as the midpoint of a concentration-inhibition curve.

Source of the values: US20110319360A1, “Method of including apoptosis/Cell death in leukemia cell using a purine nucleoside analogue” (U.S. Department of Veterans Affairs, priority 2010, published 2011).
